According to patent US8513250B2 (Laboratoire Biodim, priority 2007, dated 2013):

These compounds were tested against T1, DltA enzyme (Streptococcus agalactiae serotype III, UniProt Q8VM67) (assay: DltA HTS assays (luminescent / fluorescent), inhibition of DltA enzymatic activity in vitro). Settings: not given.
T1 construct: His-tag (from pET100 vector) (N); made in house; host or cells: E. coli BL21 (DE3) Star
T1 sequence (Q8VM67 1-511): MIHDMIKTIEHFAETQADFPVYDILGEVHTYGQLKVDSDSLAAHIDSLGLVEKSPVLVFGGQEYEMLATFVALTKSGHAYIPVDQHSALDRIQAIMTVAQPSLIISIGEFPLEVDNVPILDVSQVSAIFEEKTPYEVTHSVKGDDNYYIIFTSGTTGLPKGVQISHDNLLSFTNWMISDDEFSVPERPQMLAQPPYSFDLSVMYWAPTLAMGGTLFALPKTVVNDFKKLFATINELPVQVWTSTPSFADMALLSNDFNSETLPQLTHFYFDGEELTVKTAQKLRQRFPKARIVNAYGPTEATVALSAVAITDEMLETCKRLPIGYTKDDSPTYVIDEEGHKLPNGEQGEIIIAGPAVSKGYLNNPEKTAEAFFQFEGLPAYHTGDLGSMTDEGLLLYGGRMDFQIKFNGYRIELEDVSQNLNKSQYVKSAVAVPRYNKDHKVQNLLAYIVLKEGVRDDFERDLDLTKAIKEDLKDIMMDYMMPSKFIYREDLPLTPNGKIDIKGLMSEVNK
Type: biochemical, S. agalactiae
Description: The compounds effect on DltA enzyme has been based on the measure of the inhibition of DltA activity in vitro.
To this end, a recombinant protein Dlta was expressed and purified after cloning of the gene of S. agalatiae as described below:
Methods 1: DltA HTS Assays
The assay described below makes use of dithiothreitol (DTT) instead of DltC as reactive thiol in the catalyzed reaction. In fact, the inventors have shown that DTT, but also Coenzyme A and N-Acetylcysteamine are all thiols able to replace efficiently DltC. In addition, contrary to the prior art, radioactivity is not used: all the assays are based either on luminescent ATP detection, or on fluorescent AMP detection. They are easily amenable to miniaturized formats and fast readouts as required by HTS.
The assay buffer “AB” contains 50 mM Hepes pH8.0, 10 mM MgCl2, 50 mM KCl, 0.012% Triton-X100. The following components are added in a white polystyrene Costar plate up to a final volume of 30 μL: 3 μL DMSO, or inhibitor dissolved in DMSO and 27 μL DltA enzyme and DTT in AB. After 30 min of pre-incubation at room temperature, 30 μL of Substrates mix in AB are added in each well to a final volume of 60 μL. This reaction mixture is then composed of 10 nM DltA (produced in house from S. agalactiae), 0.5 mM D-Alanine (Sigma), 0.5 μM ATP (Sigma) and 1 mM DTT (Biochemika) in assay buffer. After 90 min of incubation at room temperature, 30 μL of the revelation mix are added to a final volume of 90 μL, including the following constituents at the respective final concentrations: 2 nM luciferase (Sigma), 30 μM D-luciferin (Sigma), 100 μM N-acetylcysteamine (Aldrich). Luminescence intensity is immediately measured on an Analyst-HT (Molecular Devices) and converted into inhibition percentages. For IC50 (Inhibitory Concentration 50%) determinations, the inhibitor is added at 6 to 10 different concentrations, and the related inhibitions are fitted to a classical langmuir equilibrium model using XLFIT (IDBS).
The assay buffer “AB” contains 50 mM Hepes pH8.0, 10 mM MgCl2, 50 mM KCl, 0.012% Triton-X100. The following components are added in a black polystyrene Costar plate up to a final volume of 50 μL: 5 μL DMSO, or inhibitor dissolved in DMSO and 45 μL DltA enzyme and DTT in AB. After 30 min of pre-incubation at room temperature, 50 μL of Substrates-revelation mix in AB are added in each well to a final volume of 100 μL. This reaction mixture is then composed of 5 nM DltA (produced in house from S. agalactiae), 0.5 mM D-Alanine (Sigma), 10 μM ATP (Sigma), 1 mM DTT (Biochemika), 10 nM Adenylate kinase (produced in house), 5 u/mL Pyruvate Kinase (Sigma), 50 μM phosphoenolpyruvate (Sigma), 5 u/mL Lactate deshydrogenase (Sigma) and 3 μM NADH (Sigma) in assay buffer. Fluorescence intensity of NADH (λex=360 nm, λem=520 nm) is immediately measured kinetically by a Fluostar Optima (BMG). Inhibition percentages are derived from fitted initial velocities. For IC50 determinations, the inhibitor is added at 6 to 10 different concentrations, and the related inhibitions are fitted to a classical langmuir equilibrium model using XLFIT (IDBS). FIG. 2 represents the data obtained using this method.
The capacity of compounds to inhibit DltA enzymatic activity was assessed using the DltA HTS assays described in method 1.
`COc1ccc(-c2cc(-c3cnc4c(NCCCO)nc5cc(C(F)(F)F)ccc5n34)[nH]n2)cc1` [Example 31, 3-({1-[1H-pyrazol-3-(4-methoxyphenyl)-5-yl]-7-(trifluoromethyl)imidazo[1,2-a]quinoxalin-4-yl}amino)propan-1-ol] showed an IC50 of 790 nM.

Same assay, conditions: Table 1; DltA inhibition, HTS assays of method 1; read-out: IC50
In the case of `CS(=O)(=O)Nc1ccc(-c2cnc3c(NCCCO)nc4cc(C(F)(F)F)ccc4n23)cc1` [Example 12, N-{4-[4-(3-Hydroxy-propylamino)-7-trifluoromethyl-imidazo[1,2-a]quinoxalin-1-yl]-phenyl}-methanesulfonamide], the IC50 is reported as 87 nM.
For `CC(=O)Nc1cccc(-c2cnc3c(NCCCO)nc4cc(C(F)(F)F)ccc4n23)c1` [Example 8, N-{3-[4-(3-Hydroxy-propylamino)-7-trifluoromethyl-imidazo[1,2-a]quinoxalin-1-yl]-phenyl}-acetamide], the IC50 was 120 nM.
Compound `OCCCNc1nc2cc(C(F)(F)F)ccc2n2c(I)cnc12` [Example 3, 3-{[1-iodo-7-(trifluoromethyl)imidazo[1,2-a]quinoxalin-4-yl]amino}propan-1-ol] has an IC50 of 620 nM.
With `Cn1cnc2c(NCCCO)nc3cc(C(F)(F)F)ccc3c21` [Example 25, 3-{[1-methyl-7-(trifluoromethyl)-1H-imidazo[4,5-c]quinolin-4-yl]amino}propan-1-ol] the IC50 was 17000 nM.
Compound `OCCCNc1nc2cc(C(F)(F)F)ccc2n2c(Br)cnc12` [Example 2, 3-{[1-bromo-7-(trifluoromethyl)imidazo[1,2-a]quinoxalin-4 yl]amino}propan-1-ol] has an IC50 of 2500 nM.
`OCCCNc1nc2cc(C(F)(F)F)c(NCc3ccccc3)cc2n2ccnc12` [Example 56, 3-{[8-(benzylamino)-7-(trifluoromethyl)imidazo[1,2-a]quinoxalin-4-yl]amino}propan-1-ol] gave an IC50 of 810 nM.
Compound `COc1ccc(-c2cnc3c(NCCCO)nc4cc(C(F)(F)F)ccc4n23)cn1` [Example 13, 3-{[1-(6-methoxypyridin-3-yl)-7-(trifluoromethyl)imidazo[1,2-a]quinoxalin-4-yl]amino}propan-1-ol] has an IC50 of 480 nM.
Work on `OCCCNc1nc2cc(C(F)(F)F)ccc2n2c(-c3ncc[nH]3)cnc12` [Example 46, 3-{[1-(1H-imidazol-2-yl)-7-(trifluoromethyl)imidazo[1,2-a]quinoxalin-4-yl]amino}propan-1-ol] yielded an IC50 of 3500 nM.
For `OCCCNc1nc2cc(C(F)(F)F)ccc2n2c(-c3cc(-c4cccnc4)n[nH]3)cnc12` [Example 33, 3-({1-[3-(3-pyridinyl)-1H-pyrazol-5-yl]-7-(trifluoromethyl)imidazo[1,2-a]quinoxalin-4-yl}amino)propan-1-ol], the IC50 was 25 nM.
`OCCCNc1nc2cc(C(F)(F)F)c(Br)cc2n2ccnc12` [Example 52, 3-(8-bromo-7-trifluoromethyl-imidazo[1,2-a]quinoxalin-4-ylamino)-propan-1-ol] was tested, and the IC50 was 8700 nM.
`OCCCNc1nc2cc(C(F)(F)F)ccc2n2c(-c3ccccc3)cnc12` [Example 11, 3-{[1-phenyl-7-(trifluoromethyl)imidazo[1,2-a]quinoxalin-4-yl]amino}propan-1-ol] gave an IC50 of 730 nM.
For `NCc1cnc2c(NCCCO)nc3cc(C(F)(F)F)ccc3n12` [Example 45, 3-{[1-(aminomethyl)-7-(trifluoromethyl)imidazo[1,2-a]quinoxalin-4-yl]amino}propan-1-ol], the IC50 was 5500 nM.
With `OCCCNc1nc2cc(-c3ccccc3C(F)(F)F)ccc2n2ccnc12` [Example 5, 3-({7-[2-(trifluoromethyl)phenyl]imidazo[1,2-a]quinoxalin-4-yl}amino)propan-1-ol] the IC50 was 560 nM.
`Cc1cn[nH]c1-c1cnc2c(NCCCO)nc3cc(C(F)(F)F)ccc3n12` [Example 40, 3-({1-[4-methyl-1H-pyrazol-5-yl]-7-(trifluoromethyl)imidazo[1,2-a]quinoxalin-4-yl}amino)propan-1-ol] gave an IC50 of 57 nM.
`OCCCNc1nc2cc(C(F)(F)F)ccc2n2c(-c3cn(Cc4ccccc4)nn3)cnc12` [Example 34] gave an IC50 of 580 nM.
In the case of `OCCCNc1nc2cc(C(F)(F)F)ccc2c2c1ncn2[C@H]1CC[C@H](O)CC1` [Example 26, 4-[4-(3-hydroxy-propylamino)-7-trifluoromethyl-imidazo[4,5-c]quinolin-1-yl]-cyclohexanol], the IC50 is reported as 20000 nM.
`CNC(=O)c1ccc(-c2cnc3c(NCCCO)nc4cc(C(F)(F)F)ccc4n23)cc1` [Example 15, 4-{4-[(3-hydroxypropyl)amino]-7-(trifluoromethyl)imidazo[1,2-a]quinoxalin-1-yl}-N-methylbenzamide] showed an IC50 of 200 nM.
Compound `OCCCNc1nc2cc(Br)ccc2n2ccnc12` [Example 4, 3-(7-bromo-imidazo[1,2-a]quinoxalin-4-ylamino)-propan-1-ol] has an IC50 of 6600 nM.
In the case of `NCc1ccc(-c2cnc3c(NCCCO)nc4cc(C(F)(F)F)ccc4n23)cc1` [Example 18, 3-({1-[4-(aminomethyl)phenyl]-7-(trifluoromethyl)imidazo[1,2-a]quinoxalin-4-yl}amino)propan-1-ol], the IC50 is reported as 240 nM.
Compound `NS(=O)(=O)c1cccc(-c2cnc3c(NCCCO)nc4cc(C(F)(F)F)ccc4n23)c1` [Example 9, 3-{4-[(3-hydroxypropyl)amino]-7-(trifluoromethyl)imidazo[1,2-a]quinoxalin-1-yl}benzenesulfonamide] has an IC50 of 690 nM.
Work on `OCCCNc1nc2cc(C(F)(F)F)c(CNc3ccccn3)cc2n2ccnc12` [Example 53, 3-({8-[(pyridin-2-ylamino)methyl]-7-(trifluoromethyl)imidazo[1,2-a]quinoxalin-4-yl}amino)propan-1-ol] yielded an IC50 of 510 nM.
`OCCCNc1nc2cc(C(F)(F)F)ccc2n2c(-c3cc(CO)n[nH]3)cnc12` [Example 49, 3-({1-[3-(hydroxymethyl)-1H-pyrazol-5-yl]-7(trifluoromethyl)imidazo[1,2-a]quinoxalin-4-yl}amino)propan-1-ol] was tested, and the IC50 was 16 nM.
Compound `OCCCNc1nc2cc(C(F)(F)F)ccc2n2ccnc12` [Example 1, 3-{[7-(trifluoromethyl)imidazo[1,2-a]quinoxalin-4-yl]amino}propan-1-ol] has an IC50 of 3200 nM.
`CCSc1ccc2c(c1)nc(NCCCO)c1nccn12` [Example 6] was tested, and the IC50 was 6500 nM.
Compound `O=C(O)c1cc(-c2cnc3c(NCCCO)nc4cc(C(F)(F)F)ccc4n23)[nH]n1` [Example 48, 5-{4-[(3-hydroxypropyl)amino]-7-(trifluoromethyl)imidazo[1,2-a]quinoxalin-1-yl}-1H-pyrazole-3-carboxylic acid] has an IC50 of 5000 nM.
Compound `OCCCNc1nc2cc(OC(F)(F)F)ccc2n2ccnc12` [Example 7, 3-{[7-(trifluoromethoxy)imidazo[1,2-a]quinoxalin-4-yl]amino}propan-1-ol] has an IC50 of 2200 nM.
`CNC(=O)NCc1cnc2c(NCCCO)nc3cc(C(F)(F)F)ccc3n12` [Example 43, 1-({4-[(3-hydroxypropyl)amino]-7-(trifluoromethyl)imidazo[1,2-a]quinoxalin-1-yl}methyl)-3-methylurea] showed an IC50 of 1200 nM.
